Assay results: patent US4493833A, “Syn-isomer of 3,7-disubstituted-3-cephem-4-carboxylic acid compounds” (Fujisawa Pharmaceutical Co., Ltd., priority 1976, dated 1985)
Converted amounts (≈) assume the structure as drawn. Where two headings read alike, the source gives them in different places.

Key:
[1] = test system: Escherichia coli NIHJ JC-2; assay: In vitro antibacterial activity, two-fold agar-plate dilution method; type: cell-based; conditions: NIHJJC2, HI-agar, 37° C., 20 hours
Description: (§1) In vitro antibacterial activity was determined by the two-fold agar-plate dilution method as described below.
(§2) One loopful of an overnight culture of each test strain in Trypticase-soy broth (10^8 viable cells per ml.) was streaked on heart infusion agar (HI-agar) containing-graded concentrations of antibiotics, and the minimal inhibitory concentration (MIC) was expressed in terms of μg/ml. after incubation at 37° C. for 20 hours.

[2] = test system: Klebsiella pneumoniae 417; assay: as above; type: cell-based
Description: as §1, §2

Proteus mirabilis 525 = assay: as above; type: cell-based; conditions: HI-agar, 37° C., 20 hours
Description: as §1, §2

Proteus vulgaris 1 = assay: as above; type: cell-based; conditions: HI-agar, 37° C., 20 hours
Description: as §1, §2

[3] = test system: Bacillus subtilis ATCC 6633; assay: as above; type: cell-based; conditions: ATCC6633, HI-agar, 37° C., 20 hours
Description: as §1, §2
as §2, with “containing graded” for “containing-graded”, “test compounds,” for “antibiotics,”

[4] = test system: Proteus vulgaris IAM-1025; assay: as above; type: cell-based; conditions: IAM1025, HI-agar, 37° C., 20 hours
Description: as §1, §2
as §2, with “containing graded concentration” for “containing-graded concentrations”, “test compounds,” for “antibiotics,”, “μg/ml” for “μg/ml.”

Escherichia coli 100 [5] = assay: MIC of strain used in the mouse infection test; type: cell-based
Description: as §1
as §2, with “([…])” for “(10^8 viable cells per ml.)”

Serratia marcesens 4 [6] = assay: MIC of strain used in the mouse infection test; type: cell-based; conditions: Serratia, 4, 20 h
Description: as §1
as §2, with “([…])” for “(10^8 viable cells per ml.)”

Escherichia coli 100 [7] = assay: Protecting effect against experimental infections in mice; type: in vivo, Male ICR strain mice; conditions: challenge 3.5 × 10^4 cells/mouse i.p.; s.c. one hour after challenge; one week
Description: (§3) Male ICR strain mice aged 4 weeks, each weighing 20-23 g were used in groups of 8 mice. The test bacteria were cultured overnight at 37° C. on HI-agar and then suspended in 2.5-5% mucin solution to obtain the suspension corresponding to each challenge cells. Mice were inoculated intraperitoneally with 0.5 ml of the suspension. A solution containing each test compounds was given subcutaneously to the mice in various dosage one hour after challenge. The ED50 values were calculated from the number of surviving mice for each dosage after one week of observation.

Serratia marcesens 4 [8] = assay: as above; type: in vivo, Male ICR strain mice; conditions: challenge 1.0 × 10^6 cells/mouse i.p.; s.c. one hour after challenge; one week
Description: as §3

Escherichia coli 29 [9] = assay: MIC of strain used in the mouse infection test; type: cell-based; conditions: Escherichia coli, 29, 20 h
Description: as §1
as §2, with “([…])” for “(10^8 viable cells per ml.)”

Escherichia coli 29 [10] = assay: Protecting effect against experimental infections in mice; type: in vivo, Male ICR strain mice; conditions: s.c. one hour after challenge, one week
Description: as §3

[11] = test system: Pseudomonas aeruginosa NCTC-10490; assay: In vitro antibacterial activity, two-fold agar-plate dilution method; type: cell-based; conditions: NCTC10490, HI-agar, 37° C., 20 hours
Description: as §1
as §2, with “containing graded” for “containing-graded”, “test compounds,” for “antibiotics,”

Acute toxicity in mice = type: in vivo, ICR strain mice; conditions: 2 g intravenously; 10 mice; one week observation
Description: The same strain mice as aforesaid protecting test against experimental infections were used in groups of 10 mice. Test compound (8) (2 g) was administered intravenously to said mice.

[12] = Klebsiella pneumoniae 417, HI-agar, 37° C., 20 hours, read-out: MIC
[13] = challenge 6 × 10^6 cells/mouse i.p.

| SMILES | MIC [1] | MIC [2, 12] | MIC (Proteus mirabilis 525) | also measured |
| --- | --- | --- | --- | --- |
| CO/N=C(\C(=O)NC1C(=O)N2C(C(=O)O)=C(CSc3nnc(C)s3)CSC12)c1csc(N)n1 (stereo not shown) [(16)] | 0.39 µg/mL (≈ 0.739 µM) | 0.1 µg/mL (≈ 0.19 µM) | 0.39 µg/mL (≈ 0.739 µM) |  |
| C#CCO/N=C(\C(=O)NC1C(=O)N2C(C(=O)O)=C(COC(C)=O)CSC12)c1csc(N)n1 (stereo not shown) [(19)] |  |  |  | MIC (Proteus vulgaris 1): 0.78 µg/mL (≈ 1.63 µM); MIC [3]: 3.13 µg/mL (≈ 6.53 µM); MIC [4]: 0.78 µg/mL (≈ 1.63 µM) |
| CO/N=C(\C(=O)NC1C(=O)N2C(C(=O)O)=C(CO)CSC12)c1csc(N)n1 (stereo not shown) [(15)] | 0.78 µg/mL (≈ 1.89 µM) | 0.05 µg/mL (≈ 0.121 µM) | 0.1 µg/mL (≈ 0.242 µM) |  |
| CC(C)O/N=C(\C(=O)NC1C(=O)N2C(C(=O)O)=C(COC(N)=O)CSC12)c1csc(N)n1 (stereo not shown) [(20)] |  |  |  | MIC (Proteus vulgaris 1): 0.2 µg/mL (≈ 0.413 µM); MIC [3]: 1.56 µg/mL (≈ 3.22 µM); MIC [4]: 0.2 µg/mL (≈ 0.413 µM) |
| C=CCn1nnnc1SCC1=C(C(=O)O)N2C(=O)C(NC(=O)/C(=N\OC(C)C)c3csc(N)n3)C2SC1 (stereo not shown) [(21)] |  |  |  | MIC (Proteus vulgaris 1): 0.78 µg/mL (≈ 1.38 µM); MIC [3]: 0.78 µg/mL (≈ 1.38 µM); MIC [4]: 0.78 µg/mL (≈ 1.38 µM) |
| CO/N=C(\C(=O)N[C@@H]1C(=O)N2C(C(=O)O)=C(COC(N)=O)CS[C@H]12)c1ccco1 [Cefuroxime, reference compound] |  |  |  | MIC of used strain (Escherichia coli 100 [5]; 10^6 viable cells/ml): 12.5 µg/mL; MIC (Escherichia coli 100 [5]; 20 h, 10^8 viable cells/ml): 12.5 µg/mL; MIC (Serratia marcesens 4 [6]; 10^6 viable cells/ml): 50 µg/mL; MIC (Serratia marcesens 4 [6]; 10^8 viable cells/ml): 400 µg/mL; ED50 (S.C.) (Escherichia coli 100 [7]): 1.158 mg/mouse; ED50 (S.C.) (Serratia marcesens 4 [8]): 4.329 mg/mouse |
| CO/N=C(\C(=O)NC1C(=O)N2C(C(=O)O)=C(COC(C)=O)CSC12)c1csc(NC=O)n1 (stereo not shown) [(12)] | 1.56 µg/mL (≈ 3.23 µM) | 1.56 µg/mL (≈ 3.23 µM) | 0.78 µg/mL (≈ 1.61 µM) | MIC (Serratia marcesens 4 [6]; 10^6 viable cells/ml): 6.25 µg/mL; MIC (Serratia marcesens 4 [6]; 10^8 viable cells/ml): 200 µg/mL; ED50 (S.C.) (Serratia marcesens 4 [8]): 0.018 mg/mouse |
| CO/N=C(\C(=O)NC1C(=O)N2C(C(=O)O)=C(CSc3nncs3)CSC12)c1csc(NC=O)n1 (stereo not shown) [(10)] | 0.78 µg/mL (≈ 1.44 µM) | 1.56 µg/mL (≈ 2.88 µM) | 0.39 µg/mL (≈ 0.72 µM) |  |
| CO/N=C(/C(=O)NC1C(=O)N2C(C(=O)O)=C(CSc3nncs3)CSC12)c1csc(NC=O)n1 (stereo not shown) [(11)] | 12.5 µg/mL (≈ 23.1 µM) | 3.13 µg/mL (≈ 5.78 µM) | 3.13 µg/mL (≈ 5.78 µM) |  |
| CC(=O)OCC1=C(C(=O)O)N2C(=O)C(NC(=O)Cc3cccs3)C2SC1 (stereo not shown) [CET, 7(2-Thienyl)acetamidocephalosporanic acid, reference compound] |  |  |  | MIC (Escherichia coli 29 [9]; 10^6 viable cells/ml): 3.13 µg/mL; MIC (Escherichia coli 29 [9]; 10^8 viable cells/ml): 12.5 µg/mL; ED50 (S.C.) (Escherichia coli 29 [10]; [13]): 1.402 mg/mouse |
| CO/N=C(\C(=O)NC1C(=O)N2C(C(=O)O)=C(COC(N)=O)CSC12)c1csc(N)n1 (stereo not shown) [(13)] | 1.56 µg/mL (≈ 3.42 µM) | 0.5 µg/mL (≈ 1.1 µM) | 0.025 µg/mL (≈ 0.0548 µM) | MIC (Serratia marcesens 4 [6]; 10^6 viable cells/ml): ≤ 0.025 µg/mL; MIC (Serratia marcesens 4 [6]; 10^8 viable cells/ml): 25 µg/mL; ED50 (S.C.) (Serratia marcesens 4 [8]): < 0.156 mg/mouse |
| CO/N=C(/C(=O)NC1C(=O)N2C(C(=O)O)=C(CSc3nnnn3C)CSC12)c1cccc(O)c1 (stereo not shown) [(3)] | 50 µg/mL (≈ 98.9 µM) | 6.25 µg/mL (≈ 12.4 µM) | 25 µg/mL (≈ 49.5 µM) |  |
| CO/N=C(\C(=O)NC1C(=O)N2C(C(=O)O)=C(CSc3nncn3C)CSC12)c1csc(N)n1 (stereo not shown) [(17)] | 0.2 µg/mL (≈ 0.392 µM) | 0.2 µg/mL (≈ 0.392 µM) | 0.39 µg/mL (≈ 0.764 µM) |  |
| CO/N=C(\C(=O)NC1C(=O)N2C(C(=O)O)=C(CSc3nncs3)CSC12)c1csc(N)n1 (stereo not shown) [(14)] | 0.1 µg/mL (≈ 0.195 µM) | 0.2 µg/mL (≈ 0.389 µM) | 0.1 µg/mL (≈ 0.195 µM) | MIC (Escherichia coli 29 [9]; 10^6 viable cells/ml): ≤ 0.03 µg/mL; MIC (Escherichia coli 29 [9]; 10^8 viable cells/ml): ≤ 0.03 µg/mL; ED50 (S.C.) (Escherichia coli 29 [10]; [13]): < 0.005 mg/mouse |
| CO/N=C(\C(=O)NC1C(=O)N2C(C(=O)O)=C(CSc3nc(C)ns3)CSC12)c1csc(N)n1 (stereo not shown) [Test Compound (3), 7-[2-Methoxyimino-2-(2-aminothiazol-4-yl)acetamido]-3-(3-methyl-1,2,4-thiadiazol-5-yl)thiomethyl-3-cephem-4-carboxylic acid] |  |  |  | MIC [3]: 1.56 µg/mL (≈ 2.96 µM) |
| CO/N=C(/C(=O)NC1C(=O)N2C(C(=O)O)=C(COC(C)=O)CSC12)c1csc(N)n1 (stereo not shown) [(9)] | 3.13 µg/mL (≈ 6.87 µM) |  | 0.78 µg/mL (≈ 1.71 µM) | MIC ([2]; Klebsiella pneumoniae, 417, 20 h): 1.56 µg/mL (≈ 3.43 µM) |
| Cc1nnc(SCC2=C(C(=O)O)N3C(=O)C(NC(=O)Cn4cnnn4)C3SC2)s1 (stereo not shown) [CEZ Na, reference compound] |  |  |  | MIC (Escherichia coli 29 [9]; 10^6 viable cells/ml): 0.78 µg/mL; MIC (Escherichia coli 29 [9]; 10^8 viable cells/ml): 3.13 µg/mL; ED50 (S.C.) (Escherichia coli 29 [10]; challenge 5.5 × 10^5 cells/mouse i.p.): 0.182 mg/mouse |
| C=CCO/N=C(\C(=O)NC1C(=O)N2C(C(=O)O)=C(CSc3nnnn3CC=C)CSC12)c1csc(N)n1 (stereo not shown) [Test Compound (3), 7-[2-Allyloxyimino-2-(2-aminothiazol-4-yl)acetamido]-3-(1-allyl-1H-tetrazol-5-yl)thiomethyl-3-cephem-4-carboxylic acid] |  |  |  | MIC [3]: 0.78 µg/mL (≈ 1.38 µM); MIC [11]: 6.25 µg/mL (≈ 11.1 µM) |
| CO/N=C(/C(=O)NC1C(=O)N2C(C(=O)O)=C(CSc3nnnn3C)CSC12)c1csc(N)n1 (stereo not shown) [(7)] | 12.5 µg/mL (≈ 24.4 µM) | 6.25 µg/mL (≈ 12.2 µM) | 3.13 µg/mL (≈ 6.12 µM) |  |
| CO/N=C(\C(=O)NC1C(=O)N2C(C(=O)O)=C(COC(C)=O)CSC12)c1csc(N)n1 (stereo not shown) [(8)] | 0.1 µg/mL (≈ 0.22 µM) | 0.1 µg/mL (≈ 0.22 µM) | 0.05 µg/mL (≈ 0.11 µM) | MIC (Escherichia coli 29 [9]; 10^6 viable cells/ml): ≤ 0.03 µg/mL; MIC (Escherichia coli 29 [9]; 10^8 viable cells/ml): 0.2 µg/mL; ED50 (S.C.) (Escherichia coli 29 [10]; [13]): < 0.005 mg/mouse; Acute toxicity (survival, disorder) (Acute toxicity in mice): All mice survived without showing any disorder |
| CO/N=C(\C(=O)NC1C(=O)N2C(C(=O)O)=C(COC(N)=O)CSC12)c1csc(NC(=O)C(F)(F)F)n1 (stereo not shown) [(18)] | 3.13 µg/mL (≈ 5.67 µM) | 0.05 µg/mL (≈ 0.0905 µM) | 0.025 µg/mL (≈ 0.0453 µM) |  |
